{
  "source": "patent US20050148495A1",
  "about": "“Methods and materials including for treating acne” (priority 2003, published 2005)",
  "key": {"[1]": {"test_system": "eye of New Zealand White rabbits", "experiment": "Rabbit primary eye irritation test (Draize)", "format": "in vivo", "procedure": "XMP.629 was evaluated in a rabbit primary eye irritation test for potential ocular irritant and/or corrosive effects when topically applied to the eye of three New Zealand White rabbits.\nAll animals received 0.1 mL of a 2% solution XMP.629 in 10 mM sodium acetate instilled into the right conjunctival sac and left in place for 24 hours. The control eye was untreated. The treated eye was washed out with 100 mL of lukewarm water for one to two minutes at approximately 24 hours post-dose. The treated and control eyes were examined at approximately 1, 24, 48, and 72 hours post-dose and on days 5, 8, and 15 for ocular irritation using the standard Draize scoring system (Draize et al., 1944, supra). Sodium fluorescein and ultraviolet light was used to examine for possible corneal injury."}, "Enterococcus": {"test_system": "Enterococcus", "format": "cell-based", "method": "(§2) Control tubes containing only water or formulation buffer were prepared for each isolate. Initial growth controls were determined by removing 10 μL from the water control tube and diluting it by 100 fold. From this dilution, 10 μL was used for inoculation and for spreading over the surface onto Laked Blood Agar (LBA) (Anaerobe Systems, Morgan Hill, Calif.) plates. The tubes and plates were incubated in an anaerobic atmosphere at 37° C. for 48 h. […] MBC50 and 90 values represent where 50 and 90%, respectively, of the tested strain's MBC values are equal to or less than the indicated concentration."}, "[2]": {"test_system": "Actinobacillus actinomycetemcomitans", "experiment": "microbe, parasite or virus in culture", "format": "cell-based", "conditions": "Actinobacillus actinomycetemcomitans 43718", "procedure": "(§1) Acne vulgaris may involve a microbial consortium. Although P. acnes may be a prominent member of such a consortium, other uncharacterized bacteria may also participate. The microbial activity of XMP.629 as an acetate gel as described in Example 5 and other commonly used antibiotics was evaluated against a panel of human pathogens using standardized NCCLS protocols. […] Lesser potency was observed against the gram-negative organisms B. fragilis, B. cepacia, P. mirabilis and S. marcescens, which are often refractory to many antimicrobial compounds."}, "Porphyromonas gingivalis": {"test_system": "Porphyromonas gingivalis", "experiment": "microbe, parasite or virus in culture", "format": "cell-based", "conditions": "Porphyromonas gingivalis 33277", "procedure": "as §1"}, "Salmonella ryphimurium": {"test_system": "Salmonella ryphimurium", "experiment": "microbe, parasite or virus in culture", "format": "cell-based", "conditions": "Salmonella ryphimurium SL770", "procedure": "as §1"}, "Burkholderia cepacia": {"test_system": "Burkholderia cepacia", "experiment": "microbe, parasite or virus in culture", "format": "cell-based", "conditions": "Burkholderia cepacia 25416", "procedure": "as §1"}, "Bacteroides fragilis": {"test_system": "Bacteroides fragilis", "experiment": "microbe, parasite or virus in culture", "format": "cell-based", "conditions": "Bacteroides fragilis 25285", "procedure": "as §1"}, "Proteus mirabilis": {"test_system": "Proteus mirabilis", "experiment": "microbe, parasite or virus in culture", "format": "cell-based", "conditions": "Proteus mirabilis 29852", "procedure": "as §1"}, "Klebsiella pneumoniae": {"test_system": "Klebsiella pneumoniae", "experiment": "microbe, parasite or virus in culture", "format": "cell-based", "procedure": "as §1"}, "Escherichia coli": {"test_system": "Escherichia coli", "experiment": "microbe, parasite or virus in culture", "format": "cell-based", "procedure": "as §1"}, "Serratia marcescens": {"test_system": "Serratia marcescens", "experiment": "microbe, parasite or virus in culture", "format": "cell-based", "procedure": "as §1"}, "Prevotella intermedia": {"test_system": "Prevotella intermedia", "experiment": "microbe, parasite or virus in culture", "format": "cell-based", "conditions": "Prevotella intermedia 25261", "procedure": "as §1"}, "[3]": {"test_system": "P. acnes strain ATCC 6919", "experiment": "Kill curves / kill kinetics", "format": "cell-based, Propionibacterium acnes", "procedure": "Kill curves were generated by incubating P. acnes strain ATCC 6919 with formulation buffer solutions of XMP.629 or other antibiotics at concentrations of […]. Samples were removed and plated at the indicated time periods. After incubation, colonies were counted and the kill kinetics determined for each drug.\nFor example, at a higher concentration of 4 μg/mL, a rapid reduction of viable cells in 8 hours to undetectable levels was observed. […] In additional kill curve studies against P. acnes, XMP.629 was bactericidal within 6 hours of exposure."}, "[4]": {"test_system": "CD [Crl:CD (SD)IGS BR] rats", "experiment": "Rat subchronic toxicity test, subcutaneous, 30 days", "format": "in vivo", "procedure": "XMP.629 was evaluated for potential subchronic dose toxicity after at least 30 consecutive days of administration to CD®[CrI: CD® (SD)IGS BR] rats. This study consisted of four main study groups, each containing ten rats/sex/group, and four toxicokinetic (TK) groups each containing six rats/sex/group. Three of the four main study and TK groups received XMP.629 by bolus subcutaneous injection at dose levels of 0.3, 1.0, and 3.0 mg/kg/day and at a dose volume of 3.0 mL/kg. One main study and TK group each served as control groups and received a vehicle (saline/sodium acetate buffer, pH 6.0) at the same dose volume. The TK groups were used for the assessment of plasma XMP.629 concentrations and to evaluate potential effects from repeat-dose administration of XMP.629 on antibody formation in a standardized assay. Blood was collected for plasma analysis on Days 1 and 28. […]\nAll rats were observed twice daily for morbidity, mortality, injury, and availability of food and water. Body weights were measured pretest and weekly for all rats and observations for clinical signs and measurements for food consumption were conducted weekly during the course of the study on main study rats. […] At the end of the treatment period for the main study rats, various hematology, clinical chemistry, and urinalysis parameters were evaluated. […]"}, "[5]": {"test_system": "P. acnes strain (ATCC 6919)", "conditions": "ATCC 6919"}, "Enterococcus hirae": {"test_system": "Enterococcus hirae", "conditions": "Enterococcus hirae 9790"}, "[6]": {"test_system": "Enterococcus faccium (VRE)", "conditions": "Enterococcus faccium 700221 (VRE)"}, "Candida": {"test_system": "Candida", "format": "cell-based", "method": "as §2"}},
  "note": "Read-outs that look alike come from different tables or passages of the source. Non-standard residues stand in square brackets, D forms with d. Residues, ends and D or L forms follow the SMILES beside them. d1Nal = N[C@H](Cc1cccc2ccccc12)C(=O)O",
  "data": [
    {"smiles": "CC(C)C[C@@H](NC(=O)[C@H](N)CCCCN)C(=O)N[C@H](Cc1ccccc1)C(=O)N[C@H](CCCNC(=N)N)C(=O)N[C@H](Cc1cccc2ccccc12)C(=O)N[C@H](CCC(N)=O)C(=O)N[C@H](C)C(=O)N[C@H](CCCCN)C(=O)N[C@H](Cc1cccc2ccccc12)C(N)=O", "note": "[XMP.629, NH2-lys-leu-phe-arg-(3-(1-naphthyl)-ala)-gln-ala-lys-(3-(1-naphthyl)-ala)-CONH2] (H-[dK][dL][dF][dR][d1Nal][dQ][dA][dK][d1Nal]-NH2)", "values": [
      {"measurement": "ocular irritation, overall", "setting": "[1]; 2% XMP.629 in 10 mM sodium acetate solution", "value": "mildly irritating"},
      {"measurement": "corneal opacity", "setting": "[1]; 2% solution in 10 mM sodium acetate, any time point", "value": "no effects on corneal opacity"},
      {"measurement": "iris, average scores", "setting": "[1]; 2% solution, 48 hours post-instillation", "value": "less than 1"},
      {"measurement": "MIC90, XMP.629 data reported as MBC values", "setting": "Enterococcus", "value": 4, "unit": "µg/mL"},
      {"measurement": "MIC90, XMP.629 data reported as MBC values", "setting": "Enterococcus; in FB (formulation buffer)", "value": 0.5, "unit": "µg/mL"},
      {"measurement": "Minimum Inhibitory Concentrations", "setting": "[2]", "value": 4.00, "unit": "µg/mL"},
      {"measurement": "Minimum Inhibitory Concentrations", "setting": "Porphyromonas gingivalis", "value": 4.00, "unit": "µg/mL"},
      {"measurement": "Minimum Inhibitory Concentrations", "setting": "Salmonella ryphimurium", "value": 4.00, "unit": "µg/mL"},
      {"measurement": "Minimum Inhibitory Concentrations", "setting": "Burkholderia cepacia", "value": 32.0, "unit": "µg/mL"},
      {"measurement": "Minimum Inhibitory Concentrations", "setting": "Bacteroides fragilis", "value": 16.0, "unit": "µg/mL"},
      {"measurement": "Minimum Inhibitory Concentrations", "setting": "Proteus mirabilis", "value": ">64", "unit": "µg/mL"},
      {"measurement": "Minimum Inhibitory Concentrations", "setting": "Klebsiella pneumoniae; Klebsiella pneumoniae 19645", "value": 2.00, "unit": "µg/mL"},
      {"measurement": "Minimum Inhibitory Concentrations", "setting": "Klebsiella pneumoniae; Klebsiella pneumoniae 29011", "value": 8.00, "unit": "µg/mL"},
      {"measurement": "Minimum Inhibitory Concentrations", "setting": "Escherichia coli; Escherichia coli 07:K1", "value": 4.00, "unit": "µg/mL"},
      {"measurement": "Minimum Inhibitory Concentrations", "setting": "Escherichia coli; Escherichia coli 0111:B4", "value": 2.00, "unit": "µg/mL"},
      {"measurement": "Minimum Inhibitory Concentrations", "setting": "Serratia marcescens; Serratia marcescens 13880", "value": 64.0, "unit": "µg/mL"},
      {"measurement": "Minimum Inhibitory Concentrations", "setting": "Serratia marcescens; Serratia marcescens 14756", "value": 32.0, "unit": "µg/mL"},
      {"measurement": "Minimum Inhibitory Concentrations", "setting": "Prevotella intermedia", "value": 2.00, "unit": "µg/mL"},
      {"measurement": "time to reduction of viable cells to undetectable levels", "setting": "[3]; 4 μg/mL", "value": 8, "unit": "h"},
      {"measurement": "exposure time until bactericidal", "setting": "[3]; additional kill curve studies against P. acnes", "value": "≤ 6", "unit": "h"},
      {"measurement": "culture at 19 hours", "setting": "[3]; all concentrations tested", "value": "no detected organisms"},
      {"measurement": "contact time to kill the microorganisms", "setting": "[3]; depending on dose", "value": "up to 10 hours"},
      {"measurement": "main finding", "setting": "[4]; 0.3, 1.0, and 3.0 mg/kg/day subcutaneous for 30 days", "value": "injection site lesions"},
      {"measurement": "no-observed-effect level (NOEL) for systemic effects", "setting": "[4]; subcutaneous, 30 days", "value": "greater than 3.0 mg/kg/day"},
      {"measurement": "MIC/MBC", "setting": "[5]", "value": ">4", "unit": "µg/mL"},
      {"measurement": "Minimum Inhibitory Concentrations", "setting": "Enterococcus hirae", "value": 2.00, "unit": "µg/mL"},
      {"measurement": "Minimum Inhibitory Concentrations", "setting": "[6]", "value": 2.00, "unit": "µg/mL"},
      {"measurement": "MIC90, XMP.629 data reported as MBC values", "setting": "Candida", "value": 1, "unit": "µg/mL"},
      {"measurement": "MIC90, XMP.629 data reported as MBC values", "setting": "Candida; in FB (formulation buffer)", "value": 0.5, "unit": "µg/mL"}
    ]}
  ]
}
